Results published in US20230117286A1, “PHARMACEUTICAL COMPOSITION FOR PREVENTION OR TREATMENT OF NONALCOHOLIC STEATOHEPATITIS” (DONG-A ST CO., LTD., priority 2020, published 2023).

Columns and labels:
[1] = tested on: mouse model with induced nonalcoholic steatohepatitis; assay: Plasma inflammation and fibrosis-related proteins (ELISA), NASH mice; format: in vivo, C57BL/6J mouse; details: FIG. 10
Protocol: (§1) A six-weeks-old male C57BL/6J mouse was fed with a special feed of high fat, high fructose, and high cholesterol (Research Diet, D09100301) for at least 27 weeks, and thus was induced to develop nonalcoholic steatohepatitis. After that, compound 1 was administered alone or in combination so that a daily dose reached 100 mg/kg/day. As the DPPIV inhibitor, evogliptin at 200 mg/kg/day or sitagliptin at 150 mg/kg/day was administered alone or in combination. As the PPAR agonist, elafibranor was administered alone or in combination so as to reach 30 mg/kg/day. As a method of administration alone or in combination, the above-described compound 1, DPPIV inhibitor, and/or PPAR agonist were prepared as a drug-diet admixture and supplied for 8 to 12 weeks.
To evaluate an effect on concentration of inflammation (CCL2, CXCl10, CXCl2, IL2 and TNFα) and fibrosis-related protein (TIMP1) in plasma, a concentration of CCL2, CXCl10, CXCl2, IL2, TNFα (MSD, K15255D-1) and TIMP1 (R&D Systems, MTM100) proteins in the plasma obtained from the mouse model was quantified by using a commercially available ELISA kit.

[2] = tested on: mouse model with induced nonalcoholic steatohepatitis; assay: Galectin-3 immunostaining in liver tissues, NASH mice; format: in vivo, C57BL/6J mouse; details: administered alone, compound 1 100 mg/kg/day
Protocol: as §1
To compare the degree of infiltration of inflammatory cells in liver tissues, an expression level of galectin-3, an indicator of increased expression in activated macrophages, was measured through immunostaining. After that, a ratio of the area stained by the galectin-3 antibody in the unit area was calculated through image analysis so as to evaluate the medicinal efficacy of ameliorating inflammation according to the co-administration.

[3] = tested on: mouse model with induced nonalcoholic steatohepatitis; assay: Blood AST and ALT, NASH mice; format: in vivo, C57BL/6J mouse; details: FIG. 11; compound 1 100 mg/kg/day, evogliptin 200 mg/kg/day, alone or in combination; combination compared to both drugs alone
Protocol: as §1
The mouse model with induced nonalcoholic steatohepatitis was subjected to autopsy, after which plasma was isolated therefrom, so as to quantify aspartate aminotransferase (AST) and alanine aminotransferase (ALT) by using an automatic blood analyzer (Konelab 20i).

[4] = tested on: mouse model with induced nonalcoholic steatohepatitis; assay: NAFLD activity score (HE histology) in mouse model with nonalcoholic steatohepatitis; format: in vivo, C57BL/6J mouse; details: administered alone, compound 1 100 mg/kg/day, compared to before treatment
Protocol: as §1
For a histological examination, liver tissues were isolated through biopsy and autopsy from the mouse model with induced nonalcoholic steatohepatitis prepared above before and after drug administration and were fixed in 10% formalin so as to prepare a paraffin block and obtain a 2 μm thick tissue section. After that, hematoxylin and eosin (HE) stain was performed by using an automatic stainer (Autostainer XL, Leica) in order to confirm an infiltration of inflammatory cells. A ratio of lipid droplets deposited in the stained liver tissues, a degree of infiltration of inflammatory cells and a degree of cell necrosis were expressed as NAFLD activity scores (NAS), and the results thereof are shown in FIGS. 2 and 3.

[5] = tested on: mouse model with induced nonalcoholic steatohepatitis; assay: Relative proportion of lipid droplets in liver tissues (image analysis of HE-stained tissue), NASH mice; format: in vivo, C57BL/6J mouse; details: for relative area of lipid droplets in liver tissues / ratio of fat (lipid droplets area) in liver tissues: compound 1 100 mg/kg/day, alone or in combination; for relative area of lipid droplets in liver tissues: evogliptin 200 mg/kg/day; for ratio of fat (lipid droplets area) in liver tissues: FIG. 5, elafibranor 30 mg/kg/day
Protocol: as §1
For quantitative comparison of fat accumulation in liver tissues, the HE-stained tissues were subjected to an image analysis to calculate a relative proportion of lipid droplets per unit area, thereby evaluating a medicinal efficacy of co-administration.

[6] = tested on: Primary human hepatic stellate cells; assay: Pro-collagen 1a1 expression in TGFβ1-activated primary human hepatic stellate cells; format: cell-based; details: FIG. 13, TGFβ1 5 ng/ml, 18 hours; for protein expression of pro-collagen 1a1 induced by TGFβ1: each drug treated alone
Protocol: Primary human hepatic stellate cells (ScienCell, #5300) were stabilized for 24 hours, then cultured in a serum-free medium for 24 hours, and then treated with compound 1 in combination with elafibranor as a PPAR agonist, firsocostat as an ACC inhibitor, or obeticholic acid as a FXR agonist together with 5 ng/ml of recombinant […] (TGFβ1), after which the resulting cells were harvested in 18 hours later and an amount of pro-collagen 1a1 in total cell proteins was quantified with a commercialized ELISKA Kit (R&D Systems, DY6220), while an amount of total cell proteins was quantified and corrected by a BCA method, and the results of calculating a concentration response curve of each drug and a concentration (IC30) showing 30% inhibitory activity are shown in FIG. 13.
When compound 1 was treated in combination with the PPAR agonist or the ACC inhibitor, the CI was calculated to be 0.7 and 0.6, which was smaller than 1, thus confirming a synergistic effect. And the CI was calculated to be 1 when treated in combination with the FXR agonist, thus confirming an additive effect.

[7] = tested on: mouse model with induced nonalcoholic steatohepatitis; assay: αSMA immunostaining in liver tissues, NASH mice; format: in vivo, C57BL/6J mouse; details: administered alone, compound 1 100 mg/kg/day
Protocol: as §1
To evaluate the effectiveness on fibrosis, an expression of a smooth muscle actin (αSMA) in a liver tissue section was measured through immunostaining so as to compare the ratio of activated stellate cells. After that, a ratio of the area stained by the αSMA antibody in the unit area was calculated through image analysis.

[8] = tested on: human monocyte cell line (THP-1); assay: Inflammatory cytokine secretion during differentiation of human monocytes into macrophages (PMA, then LPS); format: cell-based; details: FIG. 12; THP-1, PMA 50 ng/ml 48 hours, LPS 0.5 ng/ml four hours; compound 1 alone
Protocol: A human monocyte cell line (THP-1, ATCC® TIB-202™) was treated with 50 ng/ml of phorbol 12-myristate 13-acetate (PMA) for 48 hours and differentiated into macrophages, while being treated with compound 1 in combination with elafibranor as a PPAR agonist, firsocostat as an ACC inhibitor, obeticholic acid as a FXR agonist or cenicriviroc as a CCR2/5 dual antagonist, then replaced with a serum-free medium, and then treated with lipopolysaccharides (LPS; 0.5 ng/ml) for four hours, after which […], tumor necrosis factor α (TNFα; R&D Systems, DY210), and C—C motif chemokine ligand 2 (CCL2; R&D Systems, DY279), which are inflammatory cytokines secreted into the medium, were quantified with a commercially available ELISKA kit, so as to evaluate an effect on monocyte differentiation, and the results thereof are shown in FIG. 12.

[9] = NASH mice, compound 1 alone 100 mg/kg/day
[10] = compound 1 100 mg/kg/day alone or combined with sitagliptin 150 mg/kg/day
[11] = FIG. 6, evogliptin 200 mg/kg/day
[12] = FIG. 7, elafibranor 30 mg/kg/day
[13] = FIG. 2, evogliptin 200 mg/kg/day, drug-diet admixture 8 to 12 weeks
[14] = FIG. 3, elafibranor 30 mg/kg/day
[15] = FIG. 8, evogliptin 200 mg/kg/day
[16] = FIG. 9, elafibranor 30 mg/kg/day

SMILES | expression of galectin-3 in liver tissues [2, 11] | expression of galectin-3 in liver tissues [2, 12] | plasma concentration of ALT [3] | plasma concentration of AST [3] | NAFLD activity score (NAS) [4, 13] | NAFLD activity score (NAS) [4, 14] | relative area of lipid droplets in liver tissues ([5]; FIG. 4) | ratio of fat (lipid droplets area) in liver tissues [5] | protein expression of pro-collagen 1a1 induced by TGFβ1 [6] | expression of αSMA in liver tissues [7, 15] | expression of αSMA in liver tissues [7, 16] | other results
CCc1cnc(N2CCC(CCCOc3cc(F)c(-c4noc(C(C)C)n4)c(F)c3)CC2)nc1 [compound 1, 3-(4-(3-(1-(5-ethylpyrimidin-2-yl)piperidin-4-yl)propoxy)-2,6-difluorophenyl)-5-isopropyl-1,2,4-oxadiazole] | significantly reduced | significantly decreased | significantly reduced | significantly reduced | significantly improved | significantly improved | significantly reduced | significantly reduced | inhibited in a concentration-dependent manner | significantly reduced | significantly reduced | plasma concentration of CCL2 [1, 9]: significantly decreased; plasma concentration of CXCl2 [1, 9]: significantly decreased; plasma concentration of CXCl10 [1, 9]: significantly decreased; plasma IL2 [1, 10]: tendency of decreasing; plasma TNFα [1, 10]: tendency of decreasing; plasma TIMP1 ([1]; compound 1 alone 100 mg/kg/day): significantly decreased; size of lipid droplets in liver tissues ([5]; FIG. 4, compound 1 alone 100 mg/kg/day): decreased; 30% inhibitory concentration (IC30), pro-collagen 1a1 ([6]; treated alone): 550 nM; CCL2 secretion [8]: decreased in a concentration-dependent manner; IL-1β secretion [8]: decreased in a concentration-dependent manner; TNFα secretion [8]: decreased in a concentration-dependent manner
CSc1ccc(C(=O)/C=C/c2cc(C)c(OC(C)(C)C(=O)O)c(C)c2)cc1 [elafibranor, reference compound] | – | no effect of significantly decreasing | – | – | – | significantly improved | – | significantly reduced | relatively low response | – | no effect of significantly reducing | –
CC(C)(C)OC[C@@H]1C(=O)NCCN1C(=O)C[C@H](N)Cc1cc(F)c(F)cc1F [evogliptin, reference compound] | significantly reduced | – | significantly reduced | significantly reduced | insignificant | – | tendency of decreasing | – | – | significantly reduced | – | –
COc1ccccc1[C@H](Cn1c(=O)n(C(C)(C)C(=O)O)c(=O)c2c(C)c(-c3ncco3)sc21)OC1CCOCC1 [firsocostat, reference compound] | – | – | – | – | – | – | – | – | relatively low response | – | – | –
